Experiments:
Experiment in all cases: two-electrode voltage clamp, Xenopus oocytes
Format in all cases: cell-based
Conditions in all cases: read-out: EC50 or IC50
[1] = target: T1, GluN1/2B NMDA receptor (GluN1a + GluN2B) (Rattus norvegicus, UniProt P35439+Q00960, P35439:E781A)
T1 construct: gene Grin1; cRNAs 1:1-3 in Xenopus oocytes; heterotetramer
From the text: (§1) two-electrode voltage clamp, Xenopus oocytes on GluN1/2B NMDA receptor (GluN1a + GluN2B)

[2] = target: T2, GluN1/2B NMDA receptor (GluN1a + GluN2B) (Rattus norvegicus, UniProt P35439+Q00960, P35439:Y535A)
T2 construct: gene Grin1; cRNAs 1:1-3 in Xenopus oocytes; heterotetramer
T2 sequence (Q00960 27-1482, other chains not shown): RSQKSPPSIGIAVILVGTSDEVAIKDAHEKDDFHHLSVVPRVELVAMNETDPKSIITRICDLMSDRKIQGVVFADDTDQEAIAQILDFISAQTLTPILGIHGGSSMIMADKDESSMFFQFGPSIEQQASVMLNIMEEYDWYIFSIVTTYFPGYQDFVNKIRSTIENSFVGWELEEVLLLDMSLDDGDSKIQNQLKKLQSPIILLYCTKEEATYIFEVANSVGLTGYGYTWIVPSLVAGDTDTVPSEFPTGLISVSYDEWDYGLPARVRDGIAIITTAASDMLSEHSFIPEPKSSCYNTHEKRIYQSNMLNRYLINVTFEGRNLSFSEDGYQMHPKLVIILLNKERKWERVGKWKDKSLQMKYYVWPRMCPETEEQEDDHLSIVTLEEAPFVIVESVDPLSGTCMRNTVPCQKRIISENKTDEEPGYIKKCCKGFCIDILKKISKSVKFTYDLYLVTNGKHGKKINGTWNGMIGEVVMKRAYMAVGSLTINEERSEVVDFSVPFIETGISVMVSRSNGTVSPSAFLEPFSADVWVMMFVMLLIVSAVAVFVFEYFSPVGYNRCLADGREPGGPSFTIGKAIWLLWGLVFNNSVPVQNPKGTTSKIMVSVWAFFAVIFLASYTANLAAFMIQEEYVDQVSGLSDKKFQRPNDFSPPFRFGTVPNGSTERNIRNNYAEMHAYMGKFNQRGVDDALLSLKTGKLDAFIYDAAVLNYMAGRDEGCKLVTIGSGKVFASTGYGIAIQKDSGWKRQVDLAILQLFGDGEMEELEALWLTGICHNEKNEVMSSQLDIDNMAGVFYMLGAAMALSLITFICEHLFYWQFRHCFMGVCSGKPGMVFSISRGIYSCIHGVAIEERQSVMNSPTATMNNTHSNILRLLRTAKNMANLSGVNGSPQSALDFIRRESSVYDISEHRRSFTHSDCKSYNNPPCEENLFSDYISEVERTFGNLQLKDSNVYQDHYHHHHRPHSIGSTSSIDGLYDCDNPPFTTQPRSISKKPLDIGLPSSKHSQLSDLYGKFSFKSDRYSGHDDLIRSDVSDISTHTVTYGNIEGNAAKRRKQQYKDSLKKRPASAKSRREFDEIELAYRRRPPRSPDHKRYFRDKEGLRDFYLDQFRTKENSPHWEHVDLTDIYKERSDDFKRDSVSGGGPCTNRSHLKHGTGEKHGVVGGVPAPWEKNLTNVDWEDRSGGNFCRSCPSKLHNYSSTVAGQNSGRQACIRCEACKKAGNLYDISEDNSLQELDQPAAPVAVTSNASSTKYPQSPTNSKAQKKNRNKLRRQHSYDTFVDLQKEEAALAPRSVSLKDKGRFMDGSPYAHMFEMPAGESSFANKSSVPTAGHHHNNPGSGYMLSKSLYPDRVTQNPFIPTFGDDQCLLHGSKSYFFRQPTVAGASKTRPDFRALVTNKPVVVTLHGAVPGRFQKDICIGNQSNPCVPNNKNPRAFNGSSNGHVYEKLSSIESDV
From the text: as §1

[3] = target: T3, GluN1/2B NMDA receptor (GluN1a + GluN2B) (Rattus norvegicus, UniProt P35439+Q00960)
T3 construct: gene Grin1; cRNAs 1:1-3 in Xenopus oocytes; heterotetramer
T3 sequence (Q00960 27-1482, other chains not shown): as above

T1 sequence (Q00960 27-1482, other chains not shown): as above

Structure (SMILES)	IC50 [1] [µM]	IC50 [2] [µM]	IC50 [3] [µM]
O=C(O)c1cc(O)c2c(Cl)cc(Cl)cc2n1 [5,7-DCKA]	0.61 ± 0.09	0.16 ± 0.02	4.63 ± 0.33
NC(CCCP(=O)(O)O)C(=O)O (racemic) [DL-AP5]	–	–	35.7 ± 1.3

Reference: article PMC5423295, “Positive Modulatory Interactions of NMDA Receptor GluN1/2B Ligand Binding Domains Attenuate Antagonists Activity” (Frontiers in Pharmacology, 2017)
